{
  "source": "ChEMBL document CHEMBL1759870",
  "about": "“Identification, structural properties and chelating capacity of miltipolone as a broad-spectrum inhibitor to cancer cells” (Eur J Med Chem, 2011)",
  "system": "HUVEC",
  "test": "Antiproliferative activity against human HUVEC cells after 96 hrs by MTT assay",
  "assay_type": "cell-based",
  "data": [
    {"compound": "CO[C@@H]1[C@H](OC(=O)NC(=O)CCl)CC[C@]2(CO2)[C@H]1[C@@]1(C)O[C@@H]1CC=C(C)C", "note": "[O-CHLOROACETYLCARBAMOYLFUMAGILLOL]", "values": [
      {"measurement": "IC50", "result": 760, "unit": "pM"}
    ]}
  ]
}
